Test results published in patent publication US5369096A, “Glycolipid derivatives” (The Nisshin Oil Mills, Ltd., priority 1992, dated 1994).

How the values were obtained:
Type in all cases: cell-based
[1] = test system: Colo 201 cancer cells adhering to vascular endothelial cells of the normal human umbilical cord; experiment: inhibition of adhesion of Colo 201 cancer cells to rhIL1β-stimulated vascular endothelial cells, liposome dispersion; details: 11.8 μM equivalent; for Amount of Colo 201 cells adhered (fluorescence intensity): rhIL1β 200 U/ml, 485 nm
Description: (§1) A solution of 200 μg of phosphatidylcholine, 100 μg of cholesterol, 7.5 μg of dicetyl phosphate and 50 μg of a compound of the invention in a mixture of chloroform/methanol=2/1 (ca. 1 ml) was evaporated under reduced pressure to dryness followed by addition of 0.25 ml of a phosphate-buffered saline solution. The mixture was ultrasonicated (an output of 90 watts) for 5 min. and stirred (a vortex mixer) for 5 min. to form a liposome dispersion.
(§2) % Inhibition of adhesion=100-[(fluorescence intensity for rhIL1β-treated group+compound-free or a compound-containing liposome dispersion-treated group)-(fluorescence intensity for rhIL1β-untreated group)/(fluorescence intensity for rhIL1β-treated group-fluorescence intensity for rhIL1β-untreatedgroup)]×100
Vascular endothelial cells of the normal human umbilical cord grown to confluence were stimulated in 24-well plates with 200 U/ml of rhIL1β at 37° C. for 4 hours. After removal of the supernatant by suction liposome dispersions each prepared from 2→3 sialyl Le^x or a compound of the invention in an amount of 11.8 μM equivalent were added except for the rhIL1β-untreated and treated groups. The mixtures were then allowed to react at room temperature for 30 min. Subsequently, colon carcinoma cell line Colo 201 with 2',7'-bis-(carboxyethyl)-5,6-carboxyfluorescene acetoxymethyl ester fluorescent dye enclosed was added at a level of 1×10^6 cells per well followed by centrifugal operation at 100 rpm for 20 min. Each well was washed three times followed by addition of 0.5 ml of 0.5% Triton X-100 and stirring. The contents were divided into 100 μl portions in 96-well plates and measurement was made on a Baxter fluorometer at 485 nm.
4: rhIL1β-treated group+2→3 sialyl Le^x -containing liposome dispersion-treated group
5: rhIL1β-treated group+compound 5E-containing liposome dispersion-treated group (OEG)*
6: rhIL1β-treated group+compound 5A-containing liposome dispersion-treated group (2EG)
7: rhIL1β-treated group+compound 5B-containing liposome dispersion-treated group (3EG)
8: rhIL1β-treated group+compound 5C-containing liposome dispersion-treated group (4EG)
9: rhIL1β-treated group+compound 5D-containing liposome dispersion-treated group (5EG)
* OEG represents a control compound containing no CH2 CH2 O unit. The same shall apply hereinafter.
Amount adhered and % inhibition of adhesion of Colo 201 cancer cells as measured from fluorescence intensity are shown in Table 2 below.

[2] = test system: HL-60 cells adhering to vascular endothelial cells of the normal human umbilical cord; experiment: inhibition of adhesion of HL-60 cells to rhIL1β-stimulated vascular endothelial cells, liposome dispersion; details: 20 μg/ml equivalent; for Amount of HL-60 cancer cells adhered (fluorescence intensity): rhIL1β 200 U/ml, 485 nm/535 nm
Description: as §1
Vascular endothelial cells of the normal human umbilical cord grown to confluence were stimulated in 24-well plates with 200 U/ml of recombinant interleukin 1β (called hereafter rhIL1β, manufactured by Genzyme) at 37° C. for 4 hours. After removal of the supernatant by suction, liposome dispersions each prepared from a compound of the invention in an amount of 20 μg/ml equivalent were added except for the rhIL1β-untreated group (sample 1) and the treated groups (samples 2 and 3). The mixtures were then allowed to react at room temperature for 30 min. Subsequently, promyelocytic leukemia cell line HL-60 with 2',7'-bis(carboxyethyl)-5,6-carboxyfluorescene acetoxymethyl ester fluorescent dye enclosed was added at a level of 1×10^6 cells per well followed by centrifugal operation at 100 rpm for 20 min. Each well was washed three times followed by addition of 0.5 ml of 0.5% Triton X-100 and stirring. The contents were divided into 100 μl portions in 96-well plates and measurement was made on a Baxter fluorometer at 485 nm/535 nm.
4: rhIL1β-treated group+compound 5A-containing liposome dispersion-treated group (2EG)*
5: rhIL1β-treated group+compound 5B-containing liposome dispersion-treated group (3EG)*
6: rhIL1β-treated group+compound 5C-containing liposome dispersion-treated group (4EG)*
7: rhIL1β-treated group+compound 5D-containing liposome dispersion-treated group (5EG)*
* 2EG, 3EG, 4EG or 5EG represents a compound of the invention containing 2, 3, 4 or 5 CH2 CH2 O units, respectively. The same shall apply hereinafter.
as §2

[3] = test system: human normal lymphocytes adhering to vascular endothelial cells of the normal human umbilical cord; experiment: inhibition of adhesion of human normal lymphocytes to rhIL1β-stimulated vascular endothelial cells, oily emulsion; details: 20 μg/ml equivalent; for Amount adhered (fluorescence intensity): rhIL1β 200 U/ml, 485 nm/535 nm
Description: A mixed solution of 6 mg of egg yolk lecithin (manufactured by Nacalaitesque Inc.), 30 μl of soybean oil J. P. (manufactured by Yoshida Seiyaku), 470 μl of distilled water for injection (manufacturedby Otsuka Seiyaku) and 125 μg of a compound of the invention was ultrasonicated (an output of 90 watts) for 10 min. to prepare an oily emulsion. The oily emulsion was further passed through a polycarbonate membrane filter having 0.2 μm average pore diameter (manufactured by Millipore) to provide an average particle size of 0.2 μm.
Vascular endothelial cells of the normal human umbilical cord grown to confluence were stimulated in 24-well plates with 200 U/ml of rhIL1ββat 37° C. for 4 hours. After removal of the supernatant by suction, oily emulsions each prepared from a compound of the invention in an amount of 20 μg/ml equivalent were added except for the rhIL1β-untreated (Sample 1) and treated groups (Samples 2 and 3). The mixtures were then allowed to react at room temperature for 30 min. Subsequently, human normal lymphocytes with 2',7'-bis(carboxyethyl)-5,6-carboxyfluorescence acetoxymethyl ester fluorescent dye enclosed was added at a level of 2×10^6 cells per well followed by centrifugal operation at 100 rpm for 20 min. Each well was washed three times followed by addition of 0.5 ml of 0.5% Triton X-100 and stirring. The contents were divided into 100 μl portions in 96-well plates and measurement was made on a Baxter fluorometer at 485 nm/535 nm.
4: rhIL1β-treated group+2→3 sialyl Lewis X-containing oily emulsion dispersion-treated group
5: rhIL1β-treated group+compound 5E-containing oily emulsion dispersion-treated group (OEG)
6: rhIL1β-treated group+compound 5A-containing oily emulsion dispersion-treated group (2EG)
7: rhIL1β-treated group+compound 5B-containing oily emulsion dispersion-treated group (3EG)
8: rhIL1β-treated group+compound 5C-containing oily emulsion dispersion-treated group (4EG)
9: rhIL1β-treated group+compound 5D-containing oily emulsion dispersion-treated group (5EG)
Amount adhered and percent inhibition of adhesion of human normal lymphocytes as measured from fluorescence intensity are shown in Table 5 below.

SMILES: CCCCCCCCCCCCCCC(CCCCCCCCCCCCCC)C(=O)Nc1ccc(COCCOCCOCCO[C@@H]2O[C@H](CO)[C@@H](O[C@@H]3O[C@H](CO)[C@H](O)[C@H](O[C@]4(C(=O)O)C[C@H](O)[C@@H](NC(C)=O)[C@H]([C@H](O)[C@H](O)CO)O4)[C@H]3O)[C@H](O[C@@H]3O[C@@H](C)[C@@H](O)[C@@H](O)[C@@H]3O)[C@H]2O)cc1 [Compound 5B, O-(5-acetamido-3,5-dideoxy-D-glycero-α-D-galacto-2-nonulopyranosylonic acid)-(2→3)-O-β-D-galactopyranosyl-(1→4)-[O-α-L-fucopyranosyl-(1→3)-O-β-D-glucopyranosyl]-(1→1)-8-O-para-(2-tetradecylhexadecanoyl)aminobenzyl-3,6-dioxaoctane-1,8-diol]
- Amount of Colo 201 cells adhered (fluorescence intensity) [1]: 212789
- Amount of HL-60 cancer cells adhered (fluorescence intensity) [2]: 17957
- Amount adhered (fluorescence intensity) [3]: 10045

SMILES: CCCCCCCCCCCCCCC(CCCCCCCCCCCCCC)C(=O)Nc1ccc(COCCOCCO[C@@H]2O[C@H](CO)[C@@H](O[C@@H]3O[C@H](CO)[C@H](O)[C@H](O[C@]4(C(=O)O)C[C@H](O)[C@@H](NC(C)=O)[C@H]([C@H](O)[C@H](O)CO)O4)[C@H]3O)[C@H](O[C@@H]3O[C@@H](C)[C@@H](O)[C@@H](O)[C@@H]3O)[C@H]2O)cc1 [Compound 5A, O-(5-acetamido-3,5-dideoxy-D-glycero-α-D-galacto-2-nonulopyranosylonic acid)-(2→3)-O-β-D-galactopyranosyl-(1→4)-[O-α-L-fucopyranosyl-(1→3)-O-β-D-glucopyranosyl]-(1→1)-5-O-para-(2-tetradecylhexadecanoyl)aminobenzyl-3-oxapentane-1,5-diol]
- Amount of Colo 201 cells adhered (fluorescence intensity) [1]: 246293
- % Inhibition of adhesion ([1]; Colo 201 cells): 66.69%
- Amount of HL-60 cancer cells adhered (fluorescence intensity) [2]: 22769
- % Inhibition of adhesion ([2]; HL-60 cells): 80.04%
- % Inhibition of adhesion [3]: 65.8%
- Amount adhered (fluorescence intensity) [3]: 9773

SMILES: CCCCCCCCCCCCCCC(CCCCCCCCCCCCCC)C(=O)Nc1ccc(COCCOCCOCCOCCOCCO[C@@H]2O[C@H](CO)[C@@H](O[C@@H]3O[C@H](CO)[C@H](O)[C@H](O[C@]4(C(=O)O)C[C@H](O)[C@@H](NC(C)=O)[C@H]([C@H](O)[C@H](O)CO)O4)[C@H]3O)[C@H](O[C@@H]3O[C@@H](C)[C@@H](O)[C@@H](O)[C@@H]3O)[C@H]2O)cc1 [Compound 5D, O-(5-acetamido-3,5-dideoxy-D-glycero-α-D-galacto-2-nonulopyranosylonic acid)-(2→3)-O-β-D-galactopyranosyl-(1→4)-[O-α-L-fucopyranosyl-(1→3)-O-β-D-glucopyranosyl]-(1→1)-5-O-para-(2-tetradecylhexadecanoyl)aminobenzyl-3,6,9,12-tetraoxatetradecane-1,14-diol]
- Amount of Colo 201 cells adhered (fluorescence intensity) [1]: 240554
- Amount of HL-60 cancer cells adhered (fluorescence intensity) [2]: 17405
- Amount adhered (fluorescence intensity) [3]: 10324

SMILES: CCCCCCCCCCCCCCC(CCCCCCCCCCCCCC)C(=O)Nc1ccc(COCCOCCOCCOCCO[C@@H]2O[C@H](CO)[C@@H](O[C@@H]3O[C@H](CO)[C@H](O)[C@H](O[C@]4(C(=O)O)C[C@H](O)[C@@H](NC(C)=O)[C@H]([C@H](O)[C@H](O)CO)O4)[C@H]3O)[C@H](O[C@@H]3O[C@@H](C)[C@@H](O)[C@@H](O)[C@@H]3O)[C@H]2O)cc1 [Compound 5C, O-(5-acetamido-3,5-dideoxy-D-glycero-α-D-galacto-2-nonulopyranosylonic acid)-(2→3)-O-β-D-galactopyranosyl-(1→4)-[O-α-L-fucopyranosyl-(1→3)-O-β-D-glucopyranosyl]-(1→1)-11-O-para-(2-tetradecylhexadecanoyl)aminobenzyl-3,6,9-trioxaundecane-1,11-diol]
- Amount of Colo 201 cells adhered (fluorescence intensity) [1]: 240330
- Amount of HL-60 cancer cells adhered (fluorescence intensity) [2]: 26907
- Amount adhered (fluorescence intensity) [3]: 13563
